Experimental data taken from patent US20260207572A1, “METHODS AND COMPOSITIONS FOR TREATMENT OF SUBJECTS WITH HEPATIC IMPAIRMENTS” (ELEVAR THERAPEUTICS, INC., priority 2022, published 2026).

Experiments:
[1] = target: T1, CYP1A2 (Homo sapiens, UniProt P05177); test: In vitro CYP phenotyping and metabolism study, recombinant CYP1A2; format: in vitro ADME
T1 sequence (P05177 1-516): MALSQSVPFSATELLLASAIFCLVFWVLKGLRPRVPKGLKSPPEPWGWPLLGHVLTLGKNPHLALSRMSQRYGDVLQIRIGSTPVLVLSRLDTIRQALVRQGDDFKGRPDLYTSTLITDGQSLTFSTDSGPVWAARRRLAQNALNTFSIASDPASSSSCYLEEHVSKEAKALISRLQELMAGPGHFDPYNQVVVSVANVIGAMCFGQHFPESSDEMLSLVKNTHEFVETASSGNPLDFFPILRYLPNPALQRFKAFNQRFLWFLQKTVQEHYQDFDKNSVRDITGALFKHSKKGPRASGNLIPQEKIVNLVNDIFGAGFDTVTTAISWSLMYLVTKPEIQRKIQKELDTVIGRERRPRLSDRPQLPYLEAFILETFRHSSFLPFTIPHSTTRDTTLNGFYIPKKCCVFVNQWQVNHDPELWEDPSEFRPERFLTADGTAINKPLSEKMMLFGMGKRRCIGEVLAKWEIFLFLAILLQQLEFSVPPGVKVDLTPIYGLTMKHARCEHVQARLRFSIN
Experimental: (§1) Recently, an in vitro cytochrome (CYP) phenotyping and metabolism study was performed.

[2] = target: T2, CYP2C8 (Homo sapiens, UniProt P10632); test: In vitro CYP phenotyping and metabolism study, recombinant CYP2C8; format: in vitro ADME
T2 sequence (P10632 1-490): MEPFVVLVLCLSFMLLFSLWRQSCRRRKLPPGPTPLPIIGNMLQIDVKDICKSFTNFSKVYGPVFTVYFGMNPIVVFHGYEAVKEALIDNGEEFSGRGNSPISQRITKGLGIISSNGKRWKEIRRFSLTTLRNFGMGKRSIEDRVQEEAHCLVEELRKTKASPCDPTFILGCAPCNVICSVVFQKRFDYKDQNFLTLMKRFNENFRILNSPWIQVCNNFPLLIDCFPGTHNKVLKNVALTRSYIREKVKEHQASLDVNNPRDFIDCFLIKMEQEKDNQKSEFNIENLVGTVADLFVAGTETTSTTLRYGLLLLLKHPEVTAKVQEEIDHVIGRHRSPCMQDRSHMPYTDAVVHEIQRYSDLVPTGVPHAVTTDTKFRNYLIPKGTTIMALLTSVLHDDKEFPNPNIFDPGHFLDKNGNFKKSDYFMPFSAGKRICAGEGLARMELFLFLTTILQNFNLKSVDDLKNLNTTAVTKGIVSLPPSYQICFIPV
Experimental: as §1

[3] = Phase 1 study: safety and tolerability; format: in vivo, human
Text: Safety was monitored through recording of adverse events (AEs), clinical laboratory evaluations (clinical chemistry, hematology, coagulation parameters, and urinalysis), vital sign measurements, 12-lead electrocardiograms (ECGs), and physical examination findings during the study.
Safety measures for this study included AEs, incidence of laboratory abnormalities (based on hematology, clinical chemistry, coagulation, and urinalysis test results), 12-lead ECG parameters, vital sign measurements, and physical examinations.
All adverse events and observed values from clinical laboratory evaluations, 12-lead ECGs, vital sign measurements, and physical examinations were listed and summarized descriptively. No inferential statistical analyses were planned for the safety data.
The condition of each subject was monitored throughout the study. Any AEs and remedial actions required were recorded. The nature, time of onset, duration, and severity were documented, together with the Investigator's opinion of the relationship to drug administration. Any clinically significant abnormalities found during the course of the study were followed up until they returned to normal or could be clinically explained.

[4] = target: CYP2C19 (Homo sapiens, UniProt P33261); test: In vitro CYP phenotyping and metabolism study, recombinant CYP2C19; format: in vitro ADME
CYP2C19, sequence (P33261 whole entry): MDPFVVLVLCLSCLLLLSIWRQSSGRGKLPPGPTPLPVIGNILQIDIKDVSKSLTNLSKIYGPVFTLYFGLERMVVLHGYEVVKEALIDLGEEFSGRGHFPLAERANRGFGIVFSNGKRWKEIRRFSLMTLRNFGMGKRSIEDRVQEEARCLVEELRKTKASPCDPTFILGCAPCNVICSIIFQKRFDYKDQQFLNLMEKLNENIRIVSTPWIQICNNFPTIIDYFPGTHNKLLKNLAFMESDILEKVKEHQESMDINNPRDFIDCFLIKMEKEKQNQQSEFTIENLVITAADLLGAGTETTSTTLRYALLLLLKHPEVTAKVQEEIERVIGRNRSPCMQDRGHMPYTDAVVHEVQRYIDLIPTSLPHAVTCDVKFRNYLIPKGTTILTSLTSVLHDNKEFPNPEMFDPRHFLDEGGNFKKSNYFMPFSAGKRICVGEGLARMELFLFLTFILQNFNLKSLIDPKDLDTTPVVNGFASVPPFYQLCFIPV
Experimental: as §1

[5] = target: CYP2D6 (Homo sapiens, UniProt P10635); test: In vitro CYP phenotyping and metabolism study, recombinant CYP2D6; format: in vitro ADME
CYP2D6, sequence (P10635 whole entry): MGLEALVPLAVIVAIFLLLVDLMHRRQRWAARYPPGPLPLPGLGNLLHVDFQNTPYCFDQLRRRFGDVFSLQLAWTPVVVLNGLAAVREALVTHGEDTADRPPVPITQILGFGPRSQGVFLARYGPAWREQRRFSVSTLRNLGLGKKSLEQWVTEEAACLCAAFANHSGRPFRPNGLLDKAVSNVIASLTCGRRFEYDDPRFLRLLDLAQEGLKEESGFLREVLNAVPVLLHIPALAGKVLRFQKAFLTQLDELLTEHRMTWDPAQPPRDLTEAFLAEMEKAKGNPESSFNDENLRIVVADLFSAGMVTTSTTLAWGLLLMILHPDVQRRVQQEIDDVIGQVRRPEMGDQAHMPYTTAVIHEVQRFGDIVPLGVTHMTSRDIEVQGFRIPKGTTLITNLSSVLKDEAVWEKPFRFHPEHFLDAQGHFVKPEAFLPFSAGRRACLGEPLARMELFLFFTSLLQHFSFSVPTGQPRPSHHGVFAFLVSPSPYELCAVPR
Experimental: as §1

In the case of N#CC1(c2ccc(NC(=O)c3cccnc3NCc3ccncc3)cc2)CCCC1 [Rivoceranib, N-[4-(1-cyanocyclopentyl)phenyl]-2-{[(pyridin-4-yl)methyl]amino} pyridine-3-carboxamide], the “rivoceranib consumed at 60 minute incubation” value (“rivoceranib consumed” below) ([1]; CYP1A2) was “less than 10%”, the “% Remaining at 60 minute incubation” value ([1]; Recombinant CYP1A2, 5 μM) was 94.7% and the CLINT ([1]; Recombinant CYP1A2, 5 μM) was 0.041 μL/minunte/mg. For the same compound, the half-life at 5 µM ([1]; human, Recombinant CYP1A2, 5 μM, read-out: t½) was 11.2 h, the “rivoceranib consumed” value ([2]; CYP2C8) was “less than 10%” and the “% Remaining at 60 minute incubation” value ([2]; Recombinant CYP2C8, 5 μM) was 103%. The CLINT ([2]; Recombinant CYP2C8, 5 μM) was 0.037 μL/minunte/mg, the half-life at 5 µM ([2]; human, Recombinant CYP2C8, 5 μM, read-out: t½) was 12.6 h and the tolerability ([3]; 200 mg single dose (freebase), healthy subjects and subjects with mild and moderate hepatic impairment) was “well tolerated”. The “subjects with treatment-emergent adverse events (TEAEs)” value ([3]; 200 mg single dose, 27 subjects overall, both in the Mild hepatic impairment group) was 2 (7.4%) subjects, the “laboratory, ECG, physical examination abnormalities” value ([3]; 200 mg single dose, all groups) was “no clinically significant laboratory, ECG, or physical examinations abnormalities” and the “treatment emergent SAEs, TEAEs leading to discontinuation, deaths” value ([3]; 200 mg single dose, all groups) was “No treatment emergent serious adverse events (SAEs), TEAEs leading to discontinuation, or deaths”. The “rivoceranib consumed” value ([4]; CYP2C19) was “less than 10%”, the “% Remaining at 60 minute incubation” value ([4]; Recombinant CYP2C19, 5 μM) was 98.9% and the CLINT ([4]; Recombinant CYP2C19, 5 μM) was 0.057 μL/minunte/mg. The half-life at 5 µM ([4]; human, Recombinant CYP2C19, 5 μM, read-out: t½) was 8.05 h, the “rivoceranib consumed” value ([5]; CYP2D6) was “more than 60%” and the “% Remaining at 60 minute incubation” value ([5]; Recombinant CYP2D6, 5 μM) was 34.9%. The CLINT ([5]; Recombinant CYP2D6, 5 μM) was 0.587 μL/minunte/mg and the half-life at 5 µM ([5]; human, Recombinant CYP2D6, 5 μM, read-out: t½) was 0.787 h.
